# Test results from patent US20110118239A1, “PREPARATION AND ENANTIOMERIC SEPARATION OF 7-(3-PYRIDINYL)-1,7-DIAZASPIRO[4.4]NONANE AND NOVEL SALT FORMS OF THE RACEMATE AND ENANTIOMERS” (Targacept, Inc., priority 2008, published 2011).
# Where two headings read alike, the source gives them in different places.
# Tests used:
# [1] = Single rising dose (SRD) study of Compound C, plasma pharmacokinetics of racemate and enantiomers; assay type: in vivo; settings: plasma; for t1/2 (mean): Table 3; for Cmax / Tmax / AUC(0-inf) / half-life: human, po; for AUC(0-inf): read-out: AUCinf (mean); for half-life: read-out: Mean (SD) Terminal Elimination Half-life (converted)
# Method: A single, rising dose (SRD) study was performed with Compound C (the racemate). Plasma samples were analyzed for the content of the two enantiomers, Compound A (substantially pure R), Compound B (substantially pure S). Three dose groups (Compound C) were analyzed, 50, 100, and 400 mg, and four subjects were randomly selected from the 6 subjects tested to receive active treatment in each cohort examined in the SRD study.
# mice = assay: Seizure induction after acute dose, mice; assay type: in vivo; settings: female mice; acute oral dose of 400 mg/kg
# Description: For example, preclinically, Compound C induced seizures following acute doses: […]
# rats = assay: Seizure/convulsion induction after acute dose, rats; assay type: in vivo
# Method: For example, preclinically, Compound C induced seizures following acute doses:
# Likewise, Compound B induced convulsion in 1/6 male rats following an acute oral dose of 300 mg/kg.
# In fact, the effect of Compound A was not statistically different from the vehicle control.
# Rat α7 = Rat α7 (Rattus norvegicus, UniProt Q05941); assay: Binding to rat α7 NNR (Ki)
# Rat α7, sequence (Q05941 23-502): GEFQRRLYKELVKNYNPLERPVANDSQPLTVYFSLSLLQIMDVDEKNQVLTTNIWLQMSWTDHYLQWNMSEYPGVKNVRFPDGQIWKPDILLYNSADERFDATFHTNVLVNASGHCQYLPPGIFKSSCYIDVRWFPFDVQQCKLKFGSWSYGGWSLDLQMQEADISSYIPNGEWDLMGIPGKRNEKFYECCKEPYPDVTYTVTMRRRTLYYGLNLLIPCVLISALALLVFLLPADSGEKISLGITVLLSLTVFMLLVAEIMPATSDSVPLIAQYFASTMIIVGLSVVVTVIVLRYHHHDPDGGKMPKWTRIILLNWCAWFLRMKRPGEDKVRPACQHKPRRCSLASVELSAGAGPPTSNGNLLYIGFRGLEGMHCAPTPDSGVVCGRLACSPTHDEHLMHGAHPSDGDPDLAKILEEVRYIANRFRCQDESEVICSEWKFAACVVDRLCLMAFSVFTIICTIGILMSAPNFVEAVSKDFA
# Method: (§1) Binding and function of the compounds to relevant receptor sites was determined in accordance with the techniques described in PCT WO 2008/057938. Inhibition constants (Ki values), reported in nM, were calculated from the IC50 values using the method of Cheng et al., Biochem. Pharmacol. 22: 3099 (1973). […] Thus, the compounds of the present invention are selective modulators of the α4β2 NNR subtype.
# Human Ganglion = Human Ganglion (Homo sapiens, UniProt P30926+P32297); assay: Function at human ganglion subtype, single point 100 μM; assay type: cell-based
# Human Ganglion, sequence (P32297 32-505): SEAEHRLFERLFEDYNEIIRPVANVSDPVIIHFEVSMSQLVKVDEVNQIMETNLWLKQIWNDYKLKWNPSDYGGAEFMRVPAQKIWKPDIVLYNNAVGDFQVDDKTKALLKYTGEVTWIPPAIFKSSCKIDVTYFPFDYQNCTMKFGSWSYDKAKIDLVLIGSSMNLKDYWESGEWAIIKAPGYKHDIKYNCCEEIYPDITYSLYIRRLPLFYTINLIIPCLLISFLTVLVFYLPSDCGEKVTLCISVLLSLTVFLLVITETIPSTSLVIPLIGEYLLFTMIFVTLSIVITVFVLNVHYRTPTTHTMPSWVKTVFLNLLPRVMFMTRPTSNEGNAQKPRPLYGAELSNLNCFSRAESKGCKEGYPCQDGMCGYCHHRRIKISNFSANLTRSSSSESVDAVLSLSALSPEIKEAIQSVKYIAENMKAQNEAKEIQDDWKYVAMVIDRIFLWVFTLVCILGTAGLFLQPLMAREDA
# Human Ganglion, sequence (P30926 22-498): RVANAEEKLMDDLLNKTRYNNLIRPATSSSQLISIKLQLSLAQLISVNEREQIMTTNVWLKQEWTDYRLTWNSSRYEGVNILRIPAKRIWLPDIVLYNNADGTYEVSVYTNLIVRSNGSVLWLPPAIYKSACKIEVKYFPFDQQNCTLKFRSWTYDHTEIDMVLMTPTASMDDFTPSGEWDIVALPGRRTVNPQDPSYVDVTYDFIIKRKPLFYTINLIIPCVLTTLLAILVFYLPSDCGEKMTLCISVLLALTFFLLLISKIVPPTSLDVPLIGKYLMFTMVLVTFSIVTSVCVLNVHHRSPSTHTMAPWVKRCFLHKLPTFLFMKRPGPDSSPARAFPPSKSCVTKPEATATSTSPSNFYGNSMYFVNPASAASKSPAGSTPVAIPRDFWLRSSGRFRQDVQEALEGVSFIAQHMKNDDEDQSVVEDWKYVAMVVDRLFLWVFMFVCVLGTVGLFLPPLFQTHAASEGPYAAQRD
# Method: as §1
# Rat α4β2 = Rat α4β2 (Rattus norvegicus, UniProt P09483+P12390); assay: Binding to rat α4β2 NNR (Ki)
# Rat α4β2, sequence (P09483 31-630): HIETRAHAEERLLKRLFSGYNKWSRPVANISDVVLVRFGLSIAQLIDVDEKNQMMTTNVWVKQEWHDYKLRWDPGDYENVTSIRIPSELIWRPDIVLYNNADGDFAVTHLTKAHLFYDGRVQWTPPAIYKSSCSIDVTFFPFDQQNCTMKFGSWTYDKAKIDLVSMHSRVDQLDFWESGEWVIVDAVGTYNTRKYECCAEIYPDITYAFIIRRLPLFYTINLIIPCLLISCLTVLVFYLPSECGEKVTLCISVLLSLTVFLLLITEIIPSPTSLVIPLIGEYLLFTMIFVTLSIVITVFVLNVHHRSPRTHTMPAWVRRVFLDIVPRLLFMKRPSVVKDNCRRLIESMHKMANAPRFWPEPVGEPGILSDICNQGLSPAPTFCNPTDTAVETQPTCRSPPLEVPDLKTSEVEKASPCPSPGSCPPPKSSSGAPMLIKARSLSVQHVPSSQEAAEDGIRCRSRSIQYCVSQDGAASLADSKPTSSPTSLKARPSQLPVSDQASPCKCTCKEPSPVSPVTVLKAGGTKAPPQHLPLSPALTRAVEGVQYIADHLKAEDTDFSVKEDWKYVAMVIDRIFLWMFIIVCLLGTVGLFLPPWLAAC
# Rat α4β2, sequence (P12390 25-500): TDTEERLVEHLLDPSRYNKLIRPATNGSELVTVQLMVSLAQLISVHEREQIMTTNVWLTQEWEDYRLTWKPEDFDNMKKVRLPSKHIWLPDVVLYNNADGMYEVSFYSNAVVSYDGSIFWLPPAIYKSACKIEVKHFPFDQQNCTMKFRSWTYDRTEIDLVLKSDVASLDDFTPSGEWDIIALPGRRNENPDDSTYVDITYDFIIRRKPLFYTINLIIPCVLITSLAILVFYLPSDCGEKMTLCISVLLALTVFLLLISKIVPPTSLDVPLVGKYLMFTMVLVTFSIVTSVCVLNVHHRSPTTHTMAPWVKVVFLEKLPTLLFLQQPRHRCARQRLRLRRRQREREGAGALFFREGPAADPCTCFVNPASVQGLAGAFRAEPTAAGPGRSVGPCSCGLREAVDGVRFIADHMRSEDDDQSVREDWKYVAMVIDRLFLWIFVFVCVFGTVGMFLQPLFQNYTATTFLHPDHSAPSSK
# Method: as §1
# human α4β2 NNRs = target: T1, human α4β2 NNRs (Homo sapiens, UniProt P17787+P43681); assay: Function at human α4β2 NNRs, SH-EP1/human a4b2 cells, FLIPR calcium; assay type: cell-based; settings: SH-EP1/human a4b2 cells, FLIPR calcium
# T1 construct: expressed in transfected cells; host or cells: SH-EP1
# T1 sequence (P43681 29-627 limits assumed): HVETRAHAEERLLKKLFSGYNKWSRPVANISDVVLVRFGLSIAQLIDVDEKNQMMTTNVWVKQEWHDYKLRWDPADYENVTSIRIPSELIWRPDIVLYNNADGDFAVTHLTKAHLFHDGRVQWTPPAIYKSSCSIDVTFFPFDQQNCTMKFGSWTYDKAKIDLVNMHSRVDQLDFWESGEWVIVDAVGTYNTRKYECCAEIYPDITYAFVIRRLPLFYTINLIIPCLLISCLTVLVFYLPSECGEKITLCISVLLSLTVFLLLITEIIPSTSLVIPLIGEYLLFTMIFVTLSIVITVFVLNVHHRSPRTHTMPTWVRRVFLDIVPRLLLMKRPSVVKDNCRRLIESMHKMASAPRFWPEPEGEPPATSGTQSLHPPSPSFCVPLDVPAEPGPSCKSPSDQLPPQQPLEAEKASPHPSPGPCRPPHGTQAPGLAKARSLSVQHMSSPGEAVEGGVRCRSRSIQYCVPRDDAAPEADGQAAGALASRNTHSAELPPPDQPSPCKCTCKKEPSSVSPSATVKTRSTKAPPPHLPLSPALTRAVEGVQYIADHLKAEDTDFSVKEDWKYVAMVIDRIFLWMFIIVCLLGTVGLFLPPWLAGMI
# T1 sequence (P17787 26-502): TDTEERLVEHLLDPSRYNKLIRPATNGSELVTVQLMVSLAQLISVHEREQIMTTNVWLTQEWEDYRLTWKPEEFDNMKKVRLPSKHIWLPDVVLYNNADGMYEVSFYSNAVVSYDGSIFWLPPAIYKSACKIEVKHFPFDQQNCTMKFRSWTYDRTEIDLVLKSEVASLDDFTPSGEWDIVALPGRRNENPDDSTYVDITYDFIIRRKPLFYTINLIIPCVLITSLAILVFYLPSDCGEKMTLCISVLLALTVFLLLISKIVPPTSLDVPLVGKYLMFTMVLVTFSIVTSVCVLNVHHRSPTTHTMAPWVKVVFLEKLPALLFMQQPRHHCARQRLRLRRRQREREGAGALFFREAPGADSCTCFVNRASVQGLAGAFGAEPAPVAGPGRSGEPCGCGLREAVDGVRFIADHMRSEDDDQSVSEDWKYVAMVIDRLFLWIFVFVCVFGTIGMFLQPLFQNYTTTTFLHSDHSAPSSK
# Method: as §1
# After the loading period, plates were equilibrated to room temperature and the cells exposed to the test article ([…]) or nicotine or buffer alone on a FLIPR (Molecular Devices). Fluorescence (at 485 nm) was monitored throughout the experiment. The test article change in fluorescence was compared to both a positive control (10 μM nicotine) and a negative control (buffer alone) to determine the percent response relative to that of nicotine.
# Human Muscle = Human Muscle (Homo sapiens, UniProt P02708+P07510+Q07001); assay: Function at human muscle subtype, single point 100 μM; assay type: cell-based
# Method: as §1
# Human α4β2 = Human α4β2 (Homo sapiens, UniProt P17787+P43681); assay: Binding to human α4β2 NNR (Ki)
# Human α4β2, sequence (P43681 29-627 limits assumed): as the sequence (P43681 29-627 limits assumed) above
# Human α4β2, sequence (P17787 26-502): as the sequence (P17787 26-502) above
# Method: as §1
structure (smiles),measurement,setting,value
"c1cncc(N2CCC3(CCCN3)C2)c1 (racemic) [Compound C, 7-(3-pyridinyl)-1,7-diazaspiro[4.4]nonane]",t1/2 (mean),[1]; 50 mg Compound C (n = 4),24.8 h
same,t1/2 (mean),[1]; 100 mg Compound C (n = 4),21.1 h
same,t1/2 (mean),[1]; 400 mg Compound C (n = 4),18.5 h
same,Cmax,[1]; 50 mg Compound C (n = 4),21.8 ng/mL
same,Tmax,[1]; 50 mg Compound C (n = 4),4.38 h
same,AUC(0-inf),[1]; 50 mg Compound C (n = 4),473 ng·h/mL
same,half-life,[1]; 50 mg Compound C (n = 4),24.8 h
same,Cmax,[1]; 100 mg Compound C (n = 4),44.7 ng/mL
same,Tmax,[1]; 100 mg Compound C (n = 4),31.1 h
same,AUC(0-inf),[1]; 100 mg Compound C (n = 4),741 ng·h/mL
same,half-life,[1]; 100 mg Compound C (n = 4),21.1 h
same,Cmax,[1]; 400 mg Compound C (n = 4),295 ng/mL
same,Tmax,[1]; 400 mg Compound C (n = 4),2 h
same,AUC(0-inf),[1]; 400 mg Compound C (n = 4),3680 ng·h/mL
same,half-life,[1]; 400 mg Compound C (n = 4),18.5 h
same,induced seizures (animals affected),mice,1/5 female mice
same,induced seizures (animals affected),"rats; female rats, acute IV dose of 100 mg/kg",4/5 female rats
same,induced seizures (animals affected),"rats; female rats, acute oral dose of 200 mg/kg",1/5 female rats
same,induced seizures (animals affected),"rats; female rats, acute oral dose of 800 mg/kg",1/5 female rats
same,induced seizures (animals affected),"rats; male rats, acute IV dose of 100 mg/kg",1/5 male rats
same,induced seizures (animals affected),"rats; male rats, acute oral dose of 800 mg/kg",1/5 male rats
same,Ki,Rat α7,> 10 µM
same,Human Ganglion SP (100 μM),Human Ganglion,15
same,Ki,Rat α4β2,0.068 µM
same,EC50,human α4β2 NNRs; read-out: Human α4β2 EC50,9.1 µM
same,Emax,"human α4β2 NNRs; relative to 10 μM nicotine, read-out: Human α4β2 Emax (% of nic resp)",43%
same,Human Muscle SP (100 μM),Human Muscle,22
same,Ki,Human α4β2,0.034 µM
